Molecular target: epidermal growth factor receptor (EGFR) (Homo sapiens, UniProt P00533)
Assay: EGFR kinase assay kit (BPS Bioscience) with Kinase-Glo Max luminescence
Format: biochemical

Sequence of epidermal growth factor receptor (EGFR) (P00533 25-1210): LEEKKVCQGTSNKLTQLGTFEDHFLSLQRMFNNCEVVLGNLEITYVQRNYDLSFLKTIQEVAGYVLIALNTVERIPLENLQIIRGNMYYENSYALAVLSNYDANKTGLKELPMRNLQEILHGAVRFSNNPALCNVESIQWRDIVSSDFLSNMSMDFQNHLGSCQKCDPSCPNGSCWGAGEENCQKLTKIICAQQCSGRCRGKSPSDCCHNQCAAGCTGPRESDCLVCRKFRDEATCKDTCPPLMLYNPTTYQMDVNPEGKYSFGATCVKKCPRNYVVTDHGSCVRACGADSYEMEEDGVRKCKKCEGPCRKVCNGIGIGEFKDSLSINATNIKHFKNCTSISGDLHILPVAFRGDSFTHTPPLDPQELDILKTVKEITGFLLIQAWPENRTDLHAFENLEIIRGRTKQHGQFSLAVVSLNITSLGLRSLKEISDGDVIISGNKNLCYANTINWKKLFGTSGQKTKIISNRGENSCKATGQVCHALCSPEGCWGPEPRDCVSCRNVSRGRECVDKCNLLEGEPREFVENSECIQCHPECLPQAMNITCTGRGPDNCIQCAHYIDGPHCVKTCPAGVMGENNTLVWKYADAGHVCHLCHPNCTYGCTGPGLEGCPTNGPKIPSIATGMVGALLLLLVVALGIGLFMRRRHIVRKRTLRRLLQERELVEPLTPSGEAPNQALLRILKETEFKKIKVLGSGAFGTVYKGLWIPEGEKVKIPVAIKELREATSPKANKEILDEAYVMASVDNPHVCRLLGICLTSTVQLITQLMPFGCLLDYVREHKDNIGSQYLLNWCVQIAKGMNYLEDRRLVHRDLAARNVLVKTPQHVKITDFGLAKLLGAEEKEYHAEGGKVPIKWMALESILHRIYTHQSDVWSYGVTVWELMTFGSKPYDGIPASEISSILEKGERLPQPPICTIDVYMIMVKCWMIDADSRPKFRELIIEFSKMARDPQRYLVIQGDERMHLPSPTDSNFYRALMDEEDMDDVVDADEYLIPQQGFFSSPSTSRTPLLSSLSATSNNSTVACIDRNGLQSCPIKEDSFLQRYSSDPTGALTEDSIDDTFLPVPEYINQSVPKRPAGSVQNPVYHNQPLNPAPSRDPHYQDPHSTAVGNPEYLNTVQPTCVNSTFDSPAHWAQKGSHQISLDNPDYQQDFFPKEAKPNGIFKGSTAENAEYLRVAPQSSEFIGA

IC50: 440 ± 20 nM
SMILES: COc1cc2oc(-c3ccccc3)c(-c3c[nH]c4ccc(Br)cc34)c2cc1OC [8aa, 5-Bromo-3-(5,6-dimethoxy-2-phenylbenzofuran-3-yl)-1H-indole]

Source: publication PMC10893492, “Anticancer Evaluation of Novel Benzofuran–Indole Hybrids as Epidermal Growth Factor Receptor Inhibitors against Non-Small-Cell Lung Cancer Cells” (Pharmaceuticals, 2024)
